# Experimental data: patent US10399988B2, “4-aminopyrazolo[3,4-d]pyrimidinylazabicyclo derivatives and pharmaceutical composition comprising the same” (Daewoong Pharmaceutical Co., Ltd., priority 2016, dated 2019)
# Columns and labels:
# ITK = target: T1, ITK (Homo sapiens, UniProt Q08881); test: Inhibitory activity against ITK (ADP-Glo + ITK Kinase enzyme system kit); selectivity BTK vs. ITK; assay type: biochemical; conditions: for IC50: ITK enzyme 0.4 ng/uL, ATP 25 uM, luminescence, duplicate; for Selectivity (based on IC50): selectivity for the inhibitory activity of BTK vs. ITK, Equation 1
# T1 construct: purchased Promega Corporation
# T1 sequence (Q08881 1-620): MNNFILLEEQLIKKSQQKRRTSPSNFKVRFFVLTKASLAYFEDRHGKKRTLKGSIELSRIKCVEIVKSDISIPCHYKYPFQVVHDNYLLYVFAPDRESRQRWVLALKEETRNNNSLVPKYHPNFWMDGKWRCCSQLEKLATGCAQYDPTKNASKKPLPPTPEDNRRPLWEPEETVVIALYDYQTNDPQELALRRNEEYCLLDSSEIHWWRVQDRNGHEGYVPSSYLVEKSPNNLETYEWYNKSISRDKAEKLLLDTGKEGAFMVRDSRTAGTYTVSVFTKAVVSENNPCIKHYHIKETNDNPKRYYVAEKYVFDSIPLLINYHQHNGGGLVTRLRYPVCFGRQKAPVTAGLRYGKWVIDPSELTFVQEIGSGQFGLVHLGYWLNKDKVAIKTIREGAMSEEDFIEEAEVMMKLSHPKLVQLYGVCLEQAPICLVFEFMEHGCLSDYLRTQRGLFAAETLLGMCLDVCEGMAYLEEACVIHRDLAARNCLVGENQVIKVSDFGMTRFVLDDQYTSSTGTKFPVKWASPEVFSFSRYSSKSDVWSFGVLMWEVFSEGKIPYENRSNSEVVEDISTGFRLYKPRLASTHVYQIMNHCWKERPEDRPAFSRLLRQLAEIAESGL
# BTK = BTK (Homo sapiens, UniProt Q06187); test: Inhibitory activity against BTK (ADP-Glo + BTK Kinase enzyme system kit)
# BTK, sequence (Q06187 whole entry): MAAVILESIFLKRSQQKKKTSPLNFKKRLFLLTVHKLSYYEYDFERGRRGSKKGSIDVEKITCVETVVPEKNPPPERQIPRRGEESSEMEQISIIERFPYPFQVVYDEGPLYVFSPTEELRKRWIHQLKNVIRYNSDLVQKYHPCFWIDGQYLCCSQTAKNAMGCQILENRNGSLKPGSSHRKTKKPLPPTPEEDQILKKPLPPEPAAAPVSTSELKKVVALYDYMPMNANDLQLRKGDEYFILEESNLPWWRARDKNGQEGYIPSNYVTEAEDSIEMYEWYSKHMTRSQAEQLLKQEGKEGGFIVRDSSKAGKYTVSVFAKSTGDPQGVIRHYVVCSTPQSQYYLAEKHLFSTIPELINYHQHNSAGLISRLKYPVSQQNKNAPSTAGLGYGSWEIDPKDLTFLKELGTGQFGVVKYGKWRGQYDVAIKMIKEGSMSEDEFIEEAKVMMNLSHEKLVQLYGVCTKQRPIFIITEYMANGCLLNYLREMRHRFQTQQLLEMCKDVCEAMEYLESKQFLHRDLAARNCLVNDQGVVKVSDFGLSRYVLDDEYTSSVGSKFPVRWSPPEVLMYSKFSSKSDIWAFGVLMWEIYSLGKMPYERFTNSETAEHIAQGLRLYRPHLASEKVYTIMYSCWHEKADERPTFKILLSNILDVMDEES
Structure (SMILES),IC50 (ITK),Selectivity (based on IC50) (ITK),IC50 (BTK)
"C=CC(=O)N1C[C@@H]2C[C@H]1C[C@H]2n1nc(-c2ccc(Oc3ccccc3)cc2)c2c(N)ncnc21 [Ex. 14, 1-((1S,4S,5R)-5-(4-amino-3-(4-phenoxyphenyl)-1H-pyrazolo[3,4-d]pyrimidin-1-yl)-2-azabicyclo[2.2.1]heptan-2-yl)prop-2-en-1-one]",> 1000 nM,>384.6,2.6 nM
"C#CC(=O)N1CC2CC1C(n1nc(-c3cccc(Oc4ccccc4)c3)c3c(N)ncnc31)C2 (stereo not drawn) [Ex. 15, 1-(6-(4-amino-3-(3-phenoxyphenyl)-1H-pyrazolo[3,4-d]pyrimidin-1-yl)-2-azabicyclo[2.2.1]heptan-2-yl)prop-2-yn-1-one]",123 nM,58.3,2.1 nM
"C#CC(=O)N1CC2CC1C(n1nc(-c3ccc(C(=O)Nc4ccccc4)cc3)c3c(N)ncnc31)C2 (stereo not drawn) [Ex. 17, 4-(4-amino-1-(2-propioloyl-2-azabicyclo[2.2.1]heptan-6-yl)-1H-pyrazolo[3,4-d]pyrimidin-3-yl)-N-phenylbenzamide]",> 1000 nM,>212.8,4.7 nM
"C=CC(=O)N1CC2CC1C(n1nc(-c3ccc(S(=O)(=O)c4ccccc4)cc3)c3c(N)ncnc31)C2 (stereo not drawn) [Ex. 32, 1-(6-(4-amino-3-(4-(phenylsulfonyl)phenyl)-1H-pyrazolo[3,4-d]pyrimidin-1-yl)-2-azabicyclo[2.2.1]heptan-2-yl)prop-2-en-1-one]",> 1000 nM,>250,4 nM
"C=CC(=O)N1CC2CC1C(n1nc(-c3ccc(Sc4ccccc4)cc3)c3c(N)ncnc31)C2 (stereo not drawn) [Ex. 33, 1-(6-(4-amino-3-(4-(phenylthio)phenyl)-1H-pyrazolo[3,4-d]pyrimidin-1-yl)-2-azabicyclo[2.2.1]heptan-2-yl)prop-2-en-1-one]",> 1000 nM,>303.0,3.3 nM
"C=CC(=O)N1CC2CC1C(n1nc(-c3ccc(Oc4cccc(F)c4)cc3)c3c(N)ncnc31)C2 (stereo not drawn) [Ex. 34, 1-(6-(4-amino-3-(4-(3-fluorophenoxy)phenyl)-1H-pyrazolo[3,4-d]pyrimidin-1-yl)-2-azabicyclo[2.2.1]heptan-2-yl)prop-2-en-1-one]",308 nM,69.9,4.4 nM
"C=CC(=O)N1CC2CC1C(n1nc(-c3ccc(Oc4ccccc4)cc3F)c3c(N)ncnc31)C2 (stereo not drawn) [Ex. 35, 1-(6-(4-amino-3-(2-fluoro-4-phenoxyphenyl)-1H-pyrazolo[3,4-d]pyrimidin-1-yl)-2-azabicyclo[2.2.1]heptan-2-yl)prop-2-en-1-one]",132 nM,60.0,2.2 nM
"C=CC(=O)N1CC2CC1C(n1nc(-c3ccc(Oc4cccc(OC)c4)cc3)c3c(N)ncnc31)C2 (stereo not drawn) [Ex. 41, 1-(6-(4-amino-3-(4-(3-methoxyphenoxy)phenyl)-1H-pyrazolo[3,4-d]pyrimidin-1-yl)-2-azabicyclo[2.2.1]heptan-2-yl)prop-2-en-1-one]",> 1000 nM,>222.2,4.5 nM
"C=CC(=O)N1CC2CC1C(n1nc(-c3ccc(Oc4cccc(N(C)C)c4)cc3)c3c(N)ncnc31)C2 (stereo not drawn) [Ex. 42, 1-(6-(4-amino-3-(4-(3-(dimethylamino)phenoxy)phenyl)-1H-pyrazolo[3,4-d]pyrimidin-1-yl)-2-azabicyclo[2.2.1]heptan-2-yl)prop-2-en-1-one]",> 500 nM,>147,3.4 nM
"C=CC(=O)N1CC2CC1C(n1nc(-c3ccc(Oc4cccc(C(F)(F)F)c4)cc3)c3c(N)ncnc31)C2 (stereo not drawn) [Ex. 43, 1-(6-(4-amino-3-(4-(3-(trifluoromethyl)phenoxy)phenyl)-1H-pyrazolo[3,4-d]pyrimidin-1-yl)-2-azabicyclo[2.2.1]heptan-2-yl)prop-2-en-1-one]",268 nM,86.4,3.1 nM
"C=CC(=O)N1CC2CC1C(n1nc(-c3ccc(C(=O)Nc4cccc(Cl)c4)cc3)c3c(N)ncnc31)C2 (stereo not drawn) [Ex. 48, 4-(1-(2-acryloyl-2-azabicyclo[2.2.1]heptan-6-yl)-4-amino-1H-pyrazolo[3,4-d]pyrimidin-3-yl)-N-(3-chlorophenyl)benzamide]",401 nM,85.3,4.7 nM
"C=CC(=O)N1CC2CC1C(n1nc(-c3ccc(C(=O)Nc4ccccn4)cc3)c3c(N)ncnc31)C2 (stereo not drawn) [Ex. 49, 4-(1-(2-acryloyl-2-azabicyclo[2.2.1]heptan-6-yl)-4-amino-1H-pyrazolo[3,4-d]pyrimidin-3-yl)-N-(pyridin-2-yl)benzamide]",> 500 nM,>142.9,3.5 nM
"C=CC(=O)N1CC2CC1C(n1nc(-c3ccc(C(=O)Nc4cnccn4)cc3)c3c(N)ncnc31)C2 (stereo not drawn) [Ex. 53, 4-(1-(2-acryloyl-2-azabicyclo[2.2.1]heptan-6-yl)-4-amino-1H-pyrazolo[3,4-d]pyrimidin-3-yl)-N-(pyrazin-2-yl)benzamide]",> 1000 nM,>370.3,2.7 nM
"C=CC(=O)N1CC2CC1C(n1nc(-c3ccc(S(=O)(=O)Nc4ccccc4)cc3)c3c(N)ncnc31)C2 (stereo not drawn) [Ex. 54, 4-(1-(2-acryloyl-2-azabicyclo[2.2.1]heptan-6-yl)-4-amino-1H-pyrazolo[3,4-d]pyrimidin-3-yl)-N-phenylbenzenesulfonamide]",> 1000 nM,>454.5,2.2 nM
"C=CC(=O)N1CC2CCC1C(n1nc(-c3ccc(Oc4ccccc4)cc3)c3c(N)ncnc31)C2 (stereo not drawn) [Ex. 59, 1-(6-(4-amino-3-(4-phenoxyphenyl)-1H-pyrazolo[3,4-d]pyrimidin-1-yl)-2-azabicyclo[2.2.2]octan-2-yl)prop-2-en-1-one]",110 nM,39.1,2.8 nM
"Nc1ncnc2c1c(-c1ccc(Oc3ccccc3)cc1)nn2C1CC2CC1N(C(=O)/C=C/CN1CCCCC1)C2 (stereo not drawn) [Ex. 63, (E)-1-(6-(4-amino-3-(4-phenoxyphenyl)-1H-pyrazolo[3,4-d]pyrimidin-1-yl)-2-azabicyclo[2.2.1]heptan-2-yl)-4-(piperidin-1-yl)but-2-en-1-one]",> 500 nM,>333.3,1.5 nM
"C=CC(=O)N1CC2CC1C(n1nc(-c3ccc(C(=O)Nc4ccccn4)cc3F)c3c(N)ncnc31)C2 (stereo not drawn) [Ex. 64, 4-(1-(2-acryloyl-2-azabicyclo[2.2.1]heptan-6-yl)-4-amino-1H-pyrazolo[3,4-d]pyrimidin-3-yl)-3-fluoro-N-(pyridin-2-yl)benzamide]",71.5 nM,44.7,1.6 nM
"C=CC(=O)N1CC2CC1C(n1nc(-c3ccc(C(=O)Nc4cc(F)ccn4)cc3)c3c(N)ncnc31)C2 (stereo not drawn) [Ex. 67, 4-(1-(2-acryloyl-2-azabicyclo[2.2.1]heptan-6-yl)-4-amino-1H-pyrazolo[3,4-d]pyrimidin-3-yl)-N-(4-fluoropyridin-2-yl)benzamide]",54.1 nM,108.2,0.5 nM
"C=CC(=O)N1CC2CC1C(n1nc(-c3ccc(C(=O)Nc4cc(C)ccn4)cc3)c3c(N)ncnc31)C2 (stereo not drawn) [Ex. 68, 4-(1-(2-acryloyl-2-azabicyclo[2.2.1]heptan-6-yl)-4-amino-1H-pyrazolo[3,4-d]pyrimidin-3-yl)-N-(4-methylpyridin-2-yl)benzamide]",176 nM,73.1,2.4 nM
"C=CC(=O)N1C[C@@H]2C[C@@H]1[C@@H](n1nc(-c3ccc(C(=O)Nc4ccccn4)cc3)c3c(N)ncnc31)C2 [Ex. 69, 4-(1-((1R,4R,6S)-2-acryloyl-2-azabicyclo[2.2.1]heptan-6-yl)-4-amino-1H-pyrazolo[3,4-d]pyrimidin-3-yl)-N-(pyridin-2-yl)benzamide]",235 nM,181.2,1.3 nM
"C=CC(=O)N1CC2CC1C(n1nc(-c3ccc(C(=O)Nc4cc(C#N)ccn4)cc3)c3c(N)ncnc31)C2 (stereo not drawn) [Ex. 71, 4-(1-(2-acryloyl-2-azabicyclo[2.2.1]heptan-6-yl)-4-amino-1H-pyrazolo[3,4-d]pyrimidin-3-yl)-N-(4-cyanopyridin-2-yl)benzamide]",133 nM,147.7,0.9 nM
"C=CC(=O)N1C[C@@H]2C[C@H]1[C@@H](n1nc(-c3ccc(C(=O)Nc4cc(F)ccn4)cc3)c3c(N)ncnc31)C2 [Ex. 72, 4-(1-((1S,4R,6S)-2-acryloyl-2-azabicyclo[2.2.1]heptan-6-yl)-4-amino-1H-pyrazolo[3,4-d]pyrimidin-3-yl)-N-(4-fluoropyridin-2-yl)benzamide]",47.9 nM,31.9,1.5 nM
"N#CC(=CC1CC1)C(=O)N1C[C@H]2CC(n3nc(-c4ccc(C(=O)Nc5ccccn5)cc4)c4c(N)ncnc43)[C@H]1C2 (stereo partly drawn) [Ex. 75, 4-(4-amino-1-((1R,4R)-2-(2-cyano-3-cyclopropylacryloyl)-2-azabicyclo[2.2.1]heptan-6-yl)-1H-pyrazolo[3,4-d]pyrimidin-3-yl)-N-(pyridin-2-yl)benzamide]",305 nM,76.2,4 nM
